Test results published in patent EP2058315A1, “1H-Furo[3,2-C]Pyrazoles active as aurora kinase inhibitors” (Nerviano Medical Sciences S.r.l., priority 2007, dated 2009).
pIC50: −log10 of the molar value.

Molecular target: T1, Aurora-2 (Homo sapiens, UniProt O14965)
T1 sequence (O14965 1-403): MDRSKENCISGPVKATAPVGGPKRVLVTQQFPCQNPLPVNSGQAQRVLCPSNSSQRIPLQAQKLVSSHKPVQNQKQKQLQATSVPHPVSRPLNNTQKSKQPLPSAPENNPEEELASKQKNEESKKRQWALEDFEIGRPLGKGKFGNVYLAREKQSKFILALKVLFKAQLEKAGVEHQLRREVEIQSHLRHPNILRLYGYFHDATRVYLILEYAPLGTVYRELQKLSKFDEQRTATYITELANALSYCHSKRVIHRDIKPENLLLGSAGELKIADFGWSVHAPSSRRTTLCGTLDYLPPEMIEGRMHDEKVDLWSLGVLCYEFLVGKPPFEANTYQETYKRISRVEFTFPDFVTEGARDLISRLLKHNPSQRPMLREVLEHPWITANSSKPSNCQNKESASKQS
Assay: Inhibition assay of Aurora-2 activity (SPA technology)
Format: biochemical
Details: screened according to the methods of the pharmacology section; read-out: IC50values for Aur2 inhibition
Experimental: The inhibiting activity and the potency of selected compounds is determined through a method of assay based on the use of the SPA technology (Amersham Pharmacia Biotech).
The assay consists of the transfer of radioactivity labelled phosphate moiety by the kinase to a biotinylated substrate. The resulting 33P-labelled biotinylated product is allowed to bind to streptavidin-coated SPA beads (biotin capacity 130 pmol/mg), and light emitted was measured in a scintillation counter.
Kinase reaction: 8 µM biotinylated peptide (4 repeats of LRRWSLG, commercially available from Sigma, catalogue no. L-3523), 10 µM ATP (0.5 uCi P^33γ-ATP), 7.5 ng Aurora 2, inhibitor in a final volume of 30 µl buffer (HEPES 50 mM pH 7.0, MgCl2 10 mM, 1 mM DTT, 0.2 mg/mL BSA, 3 µM orthovanadate) were added to each well of a 96 U bottom well plate. After 60 minutes at room temperature incubation, the reaction was stopped and biotinylated peptide captured by adding 100 µl of bead suspension.
Stratification: 100 µl of CsCl 5 M were added to each well and stood for 4 hours before radioactivity was counted in the Top-Count instrument.
IC50 determination: inhibitors were tested at different concentrations ranging from 0.0015 to 10 µM. Experimental data were analyzed by the computer program GraphPad Prizm using the four parameter logistic equation: y = bottom+(top-bottom)/(1+10^((logIC50-x)*slope)) where x is the logarithm of the inhibitor concentration, y is the response; y starts at bottom and goes to top with a sigmoid shape. Ki calculation: Experimental method: Reaction was carried out in buffer (10 mM Tris, pH 7.5, 10 mM MgCl2, 0.2 mg/mL BSA, 7.5 mM DTT) containing 3.7 nM enzyme, histone and ATP (constant ratio of cold/labeled ATP 1/3000). The reaction was stopped with EDTA and the substrate captured on phosphomembrane (Multiscreen 96 well plates from Millipore). After extensive washing, the multiscreen plates were read on a top counter. Control (time zero) for each ATP and histone concentrations was measured.

SMILES: CC(C)(NC(=O)c1cc2[nH]nc(NC(=O)c3ccc(F)cc3)c2o1)c1ccccc1 [Compound 4, 3-[(4-fluorobenzoyl)amino]-N-(1-methyl-1-phenylethyl)-1H-furo[3,2-c]pyrazole-5-carboxamide]
- pIC50: > 8.00

SMILES: O=C(Nc1n[nH]c2cc(C(=O)NC3(c4ccccc4)CC3)oc12)c1ccc(N2CCOCC2)cc1 [Compound 7, 3-[(4-morpholin-4-ylbenzoyl)amino]-N-(1-phenylcyclopropyl)-1H-furo[3,2-c]pyrazole-5-carboxamide]
- pIC50: > 8.00

SMILES: CN1CCN(c2ccc(C(=O)Nc3n[nH]c4cc(C(=O)NC(C)(C)c5ccccc5)oc34)cc2)CC1 [Compound 10, N-(1-methyl-1-phenylethyl)-3-{[4-(4-methylpiperazin-1-yl)benzoyl]amino}-1H-furo[3,2-c]pyrazole-5-carboxamide]
- pIC50: > 8.00

SMILES: COc1ccc(C(=O)Nc2n[nH]c3cc(C(=O)NC(C)(C)c4ccccc4)oc23)cc1 [Compound 18, 3-[(4-methoxybenzoyl)amino]-N-(1-methyl-1-phenylethyl)-1H-furo[3,2-c]pyrazole-5-carboxamide]
- pIC50: > 8.00

SMILES: CN1CCN(c2ccc(C(=O)Nc3n[nH]c4cc(C(=O)NC(C)(C)c5cccc(Cl)c5)oc34)cc2)CC1 [Compound 26, N-[1-(3-chlorophenyl)-1-methylethyl]-3-{[4-(4-methylpiperazin-1-yl)benzoyl]amino}-1H-furo[3,2-c]pyrazole-5-carboxamide]
- pIC50: > 8.00

SMILES: CN1CCN(c2ccc(C(=O)Nc3n[nH]c4cc(C(=O)NC5(c6ccccc6)CCCC5)oc34)cc2)CC1 [Compound 27, 3-{[4-(4-methylpiperazin-1-yl)benzoyl]amino}-N-(1-phenylcyclopentyl)-1H-furo[3,2-c]pyrazole-5-carboxamide]
- pIC50: > 8.00

SMILES: CC(C)(NC(=O)c1cc2[nH]nc(NC(=O)c3ccco3)c2o1)c1ccccc1 [Compound 28, 3-(2-furoylamino)-N-(1-methyl-1-phenylethyl)-1H-furo[3,2-c]pyrazole-5-carboxamide]
- pIC50: > 8.00

SMILES: CN1CCC(Oc2ccc(C(=O)Nc3n[nH]c4cc(C(=O)NC(C)(C)c5ccccc5)oc34)cc2)CC1 [Compound 30, N-(1-methyl-1-phenylethyl)-3-({4-[(1-methylpiperidin-4-yl)oxy]benzoyl}amino)-1H-furo[3,2-c]pyrazole-5-carboxamide]
- pIC50: > 8.00

SMILES: CN1CCN(Cc2ccc(C(=O)Nc3n[nH]c4cc(C(=O)NC(C)(C)c5ccccc5)oc34)cc2)CC1 [Compound 31, N-(1-methyl-1-phenylethyl)-3-({4-[(4-methylpiperazin-1-yl)methyl]benzoyl}amino)-1H-furo[3,2-c]pyrazole-5-carboxamide]
- pIC50: > 8.00

SMILES: CC(C)(NC(=O)c1cc2[nH]nc(NC(=O)c3ccc(CN4CCOCC4)cc3)c2o1)c1ccccc1 [Compound 32, N-(1-methyl-1-phenylethyl)-3-{[4-(morpholin-4-ylmethyl)benzoyl]amino}-1H-furo[3,2-c]pyrazole-5-carboxamide]
- pIC50: > 8.00

SMILES: Cn1cccc1C(=O)Nc1n[nH]c2cc(C(=O)NC(C)(C)c3ccccc3)oc12 [Compound 33, N-(1-methyl-1-phenylethyl)-3-{[(1-methyl-1H-pyrrol-2-yl)carbonyl]amino}-1H-furo[3,2-c]pyrazole-5-carboxamide]
- pIC50: > 8.00

SMILES: CC(C)(NC(=O)c1cc2[nH]nc(NC(=O)c3ccc(CN4CCCC4)cc3)c2o1)c1ccccc1 [Compound 34, N-(1-methyl-1-phenylethyl)-3-{[4-(pyrrolidin-1-ylmethyl)benzoyl]amino}-1H-furo[3,2-c]pyrazole-5-carboxamide]
- pIC50: > 8.00

SMILES: Cc1cc(C(=O)Nc2n[nH]c3cc(C(=O)NC(C)(C)c4ccccc4)oc23)n(C)n1 [Compound 38, 3-{[(1,3-dimethyl-1 H-pyrazol-5-yl)carbonyl]amino}-N-(1-methyl-1-phenylethyl)-1H-furo[3,2-c]pyrazole-5-carboxamide]
- pIC50: > 8.00

SMILES: CC(C)(NC(=O)c1cc2[nH]nc(NC(=O)c3ccco3)c2o1)c1ccccc1F [Compound 39, N-[1-(2-fluorophenyl)-1-methylethyl]-3-(2-furoylamino)-1H-furo[3,2-c]pyrazole-5-carboxamide]
- pIC50: > 8.00

SMILES: O=C(Nc1n[nH]c2cc(C(=O)NC3(c4ccccc4)CCCC3)oc12)c1ccco1 [Compound 40, 3-(2-furoylamino)-N-(1-phenylcyclopentyl)-1H-furo[3,2-c]pyrazole-5-carboxamide]
- pIC50: > 8.00

SMILES: Cc1occc1C(=O)Nc1n[nH]c2cc(C(=O)NC(C)(C)c3ccccc3)oc12 [Compound 41, 3-[(2-methyl-3-furoyl)amino]-N-(1-methyl-1-phenylethyl)-1H-furo[3,2-c]pyrazole-5-carboxamide]
- pIC50: > 8.00

SMILES: CC(C)(NC(=O)c1cc2[nH]nc(NC(=O)c3ccc(CN4CCC4)cc3)c2o1)c1ccccc1 [Compound 43, 3-{[4-(azetidin-1-ylmethyl)benzoyl]amino}-N-(1-methyl-1-phenylethyl)-1H-furo[3,2-c]pyrazole-5-carboxamide]
- pIC50: > 8.00

SMILES: Cc1ccsc1C(=O)Nc1n[nH]c2cc(C(=O)NC(C)(C)c3ccccc3)oc12 [Compound 44, N-(1-methyl-1-phenylethyl)-3-{[(3-methyl-2-thienyl)carbonyl]amino}-1H-furo[3,2-c]pyrazole-5-carboxamide]
- pIC50: > 8.00

SMILES: Cc1ccc(C(=O)Nc2n[nH]c3cc(C(=O)NC(C)(C)c4ccccc4)oc23)s1 [Compound 45, N-(1-methyl-1-phenylethyl)-3-{[(5-methyl-2-thienyl)carbonyl]amino}-1H-furo[3,2-c]pyrazole-5-carboxamide]
- pIC50: > 8.00

SMILES: Cc1csc(C(=O)Nc2n[nH]c3cc(C(=O)NC(C)(C)c4ccccc4)oc23)c1 [Compound 48, N-(1-methyl-1-phenylethyl)-3-{[(4-methyl-2-thienyl)carbonyl]amino}-1H-furo[3,2-c]pyrazole-5-carboxamide]
- pIC50: > 8.00

SMILES: Cc1cc(C(=O)Nc2n[nH]c3cc(C(=O)NC(C)(C)c4ccccc4)oc23)c(C)o1 [Compound 50, 3-[(2,5-dimethyl-3-furoyl)amino]-N-(1-methyl-1-phenylethyl)-1H-furo[3,2-c]pyrazole-5-carboxamide]
- pIC50: > 8.00

SMILES: Cc1ccc(C(=O)Nc2n[nH]c3cc(C(=O)NC(C)(C)c4ccccc4)oc23)o1 [Compound 51, 3-[(5-methyl-2-furoyl)amino]-N-(1-methyl-1-phenylethyl)-1H-furo[3,2-c]pyrazole-5-carboxamide]
- pIC50: > 8.00

SMILES: Cc1ccoc1C(=O)Nc1n[nH]c2cc(C(=O)NC(C)(C)c3ccccc3)oc12 [Compound 53, 3-[(3-methyl-2-furoyl)amino]-N-(1-methyl-1-phenylethyl)-1H-furo[3,2-c]pyrazole-5-carboxamide]
- pIC50: > 8.00

SMILES: Cn1nccc1C(=O)Nc1n[nH]c2cc(C(=O)NC(C)(C)c3ccccc3)oc12 [Compound 55, N-(1-methyl-1-phenylethyl)-3-{[(1-methyl-1H-pyrazol-5-yl)carbonyl]amino}-1H-furo[3,2-c]pyrazole-5-carboxamide]
- pIC50: > 8.00

SMILES: Cn1ccc(C(=O)Nc2n[nH]c3cc(C(=O)NC(C)(C)c4ccccc4)oc23)n1 [Compound 56, N-(1-methyl-1-phenylethyl)-3-{[(1-methyl-1H-pyrazol-3-yl)carbonyl]amino}-1H-furo[3,2-c]pyrazole-5-carboxamide]
- pIC50: > 8.00

SMILES: CC(C)(NC(=O)c1cc2[nH]nc(NC(=O)c3cccs3)c2o1)c1ccccc1F [Compound 57, N-[1-(2-fluorophenyl)-1-methylethyl]-3-[(2-thienylcarbonyl)amino]-1H-furo[3,2-c]pyrazole-5-carboxamide]
- pIC50: > 8.00

SMILES: CC(C)(NC(=O)c1cc2[nH]nc(NC(=O)c3cccs3)c2o1)c1ccc(F)cc1F [Compound 58, N-[1-(2,4-difluorophenyl)-1-methylethyl]-3-[(2-thienylcarbonyl)amino]-1H-furo[3,2-c]pyrazole-5-carboxamide]
- pIC50: > 8.00

SMILES: CC(C)(NC(=O)c1cc2[nH]nc(NC(=O)c3ccc(CN4CCCCC4)cc3)c2o1)c1ccccc1 [Compound 59, N-(1-methyl-1-phenylethyl)-3-{[4-(piperidin-1-ylmethyl)benzoyl]amino}-1H-furo[3,2-c]pyrazole-5-carboxamide]
- pIC50: > 8.00
